Reference: PMC10610095 (Pharmaceuticals, 2023)
Several values for one entry are separate records, joined by “and”; a condition that tells them apart may be missing. Equal entries are not always repeated. Each block holds one compound with its values, some of them ahead of it.

Assays:
[1] = test system: GPR44; design: method as in PMID 30557325; conditions: clinical trial, orally administered; cited from earlier work
[2] = test system: DP1; design: method as in PMID 33800801; conditions: cited from earlier work
[3] = test system: TP; design: method as in PMID 33800801; conditions: cited from earlier work
[4] = Biodistribution in healthy control NOD/SCID mice; format: in vivo; conditions: i.v.
Description: The uptake of the tracer in the kidney was ~4.00 ± 0.80% ID/g at 30 min p.i, 2.11 ± 1.06% ID/g at 60 min p.i., and 1.33 ± 0.47% ID/g at 90 min p.i. […] Low tracer uptake levels were common in the majority of organs, excluding excretion organs such as the liver. […] Of the time points, 30 min post-injection was chosen to evaluate the next specific GPR44 mouse models.
The biodistribution of [^18F]TM30089 was investigated in healthy NOD/SCID mice at various time points post-injection. Three time points (30 min, 60 min, or 90 min post-injection) and one blocking time point (30 min post-injection) were selected in the biodistribution (n = 4/each group). […] Under general anesthesia, NOD/SCID mice were administered doses of tracer (~3.7 MBq) intravenously through the tail vein. At the above-specified time points, the animals were euthanized, and the organs/tissues of interest were harvested. Organs/tissues were weighed, and the gamma was counted. Radioactive uptakes were calculated and reported as percentage of injected dose per gram (% ID/g) for each organ.

[5] = target: T1, GPR44 (1.1 B4 tumor) (Homo sapiens, UniProt Q9Y5Y4); test: Biodistribution in NOD/SCID mice implanted with 1.1 B4 cells, with and without blocking agent; format: in vivo; conditions: 30 min p.i.; for pancreas uptake: 1.1 B4 model; for tumor uptake: 1.1 B4 tumor
T1 construct: 1.1 B4 cells were implanted into NOD/SCID mice to generate GPR44-expressing mouse models; endogenous in cells; host or cells: human 1.1 B4 hybrid cell line (human pancreatic islet culture x PANC-1), subcutaneous xenograft in NOD/SCID mice
T1 sequence (Q9Y5Y4 1-395): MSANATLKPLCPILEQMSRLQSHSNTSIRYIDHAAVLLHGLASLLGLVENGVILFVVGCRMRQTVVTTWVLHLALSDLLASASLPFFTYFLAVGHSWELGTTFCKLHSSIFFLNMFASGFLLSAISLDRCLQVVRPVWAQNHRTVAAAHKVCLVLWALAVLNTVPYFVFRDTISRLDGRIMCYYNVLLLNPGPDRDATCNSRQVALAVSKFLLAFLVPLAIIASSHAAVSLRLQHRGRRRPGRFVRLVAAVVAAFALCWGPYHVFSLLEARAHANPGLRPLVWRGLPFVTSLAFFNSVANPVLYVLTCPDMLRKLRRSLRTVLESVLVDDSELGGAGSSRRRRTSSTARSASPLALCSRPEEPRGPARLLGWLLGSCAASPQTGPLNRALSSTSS
Description: NOD/SCID mice (n = 24) were subcutaneously injected with 1.1 B4 cells above their shoulders. Tumors were established 17–21 d after injection.
(§1) Under general anesthesia, NOD/SCID mice were administered doses of tracer (~3.7 MBq) intravenously through the tail vein, then the animals were euthanized at 30 min post-injection. Organs/tissues/tumors of interest were harvested, weighed, and gamma-counted. Radioactive uptakes were calculated and reported as percentage of injected dose per gram (% ID/g) for each organ/tissue/tumor.

[6] = target: T2, GPR44 (transplanted human islets) (Homo sapiens, UniProt Q9Y5Y4); test: Biodistribution in NOD/SCID mice with transplanted human islets in a renal capsule; format: in vivo; conditions: 500 IEQ human islets, 30 min p.i., two individual mice
T2 construct: Only transplanted human islets were targeted by the GPR44 radio-probes; tissue Southern California Islet Cell Resources Center; host or cells: human pancreatic islets from healthy adult donors, 500 IEQ transplanted into the renal capsule of NOD/SCID mice
T2 sequence (Q9Y5Y4 1-395): T1 sequence (Q9Y5Y4 1-395)
Description: A procedure similar to that of the above murine biodistribution was performed in this biodistribution study. Mice were euthanized at 30 min post-injection, and the organs/tissues of interest were collected.
Human islets with diameters of less than 250 µm were used for transplantation. A total of 500 IEQ human islets were transplanted into the renal capsule of NOD/SCID mice (n = 5) using a well-established standard procedure.
as §1, with “Organs/tissues/islets” for “Organs/tissues/tumors”, “organ/tissue/islet.” for “organ/tissue/tumor.”

[7] = test system: GPR44 vs thromboxane receptor (TP); design: method as in PMID 15179446; conditions: cited from earlier work

SMILES: CC(=O)Nc1cccc2c1c(Sc1ccc(Cl)cc1)c(C)n2CC(=O)O [AZD1981]
- improvement in insulin secretion [1]: did not show a significant improvement in insulin secretion

SMILES: CN(C1CCc2c(c3ccccc3n2CC(=O)O)C1)S(=O)(=O)c1ccc(F)cc1 (stereo not shown) [TM-30089, {3-[(4-fluoro-benzenesulfonyl)methyl-amino]-1,2,3,4-tetrahydro-carbazol-9-yl}acetic acid]
- off-target binding to DP1 [2]: negligible off-target binding
- off-target binding to TP [3]: negligible off-target binding

- uptake in other organs (heart, lung, pancreas, spleen) [4]: low uptakes
- kidney uptake ([4]; 30 min p.i.): ~ 4.00 ± 0.80 % ID/g
- liver uptake ([4]; 30 min p.i.): 15.31 ± 0.16 % ID/g
- small intestine uptake ([4]; 30 min p.i.): 10.67 ± 2.13 % ID/g
- kidney uptake ([4]; 60 min p.i.): 2.11 ± 1.06 % ID/g
- liver uptake ([4]; 60 min p.i.): 8.76 ± 1.60 % ID/g
- small intestine uptake ([4]; 60 min p.i.): 10.14 ± 0.47 % ID/g
- kidney uptake ([4]; 90 min p.i.): 1.33 ± 0.47 % ID/g
- liver uptake ([4]; 90 min p.i.): 6.62 ± 0.57 % ID/g
- small intestine uptake ([4]; 90 min p.i.): 9.90 ± 0.26 % ID/g
- pancreas uptake ([5]; blocked group (cold TM30089 1 mg/kg)): 0.26 ± 0.05 % ID/g
- pancreas uptake ([5]; non-blocked group): 0.38 ± 0.04 % ID/g
- tumor uptake ([5]; blocked with cold TM30089 (1 mg/kg)): 0.24 ± 0.02 % ID/g
- tumor uptake ([5]; non-blocked): 27.81 ± 1.71 % ID/g
- uptake in human islets transplanted into a kidney capsule [6]: 10.87 % ID/g and 6.21 % ID/g
SMILES: CN(C1CCc2c(c3ccccc3n2CC(=O)O)C1)S(=O)(=O)c1ccc([18F])cc1 (stereo not shown) [[^18F]TM-30089]

SMILES: O=C(O)CCn1c2c(c3ccccc31)C[C@H](NS(=O)(=O)c1ccc(F)cc1)CC2 [ramatroban]
- selectivity for GPR44 than for TP (times less) [7]: approximately 16 times
